Measurements published in patent US20190350909A1, “COMPOSITIONS AND METHODS FOR MODULATING HAIR GROWTH” (priority 2018, published 2019).
“Also recorded” adds a separate entry of the source.

How the values were obtained:
Format in all cases: in vivo, C57BL/6 mice
hair cycle = experiment: Hair cycle analysis after topical treatment of shaved dorsal skin of telogen-stage mice; conditions: topical treatment during telogen, macroscopic and H&E follicle morphology (FIG. 2A-2C)
Experimental: (§1) Wildtype male and female 49-day old C57BL/6 mice were obtained from Jackson Laboratories for all topical experiments. All animals were maintained in UCLA's Division of Laboratory Medicine (DLAM)-approved pathogen-free barrier facilities and procedures were performed using protocols that adhere to the standards of the UCLA Animal Research Committee (ARC), Office of Animal Research Oversight (OARO), and the National Institutes of Health (NIH).
(§2) All drugs were suspended in DMSO and aliquoted at approximately 5 times IC50 or EC50 for the purposes of penetrating the epidermal barrier upon in vivo application. Aliquots were then mixed with the appropriate volume of Premium Lecithin Organogel (PLO) Base (Transderma Pharmaceuticals Inc.) and topically applied onto the shaved dorsal skin of 49 day old telogen-stage mice. Three experiment timepoints were used: acute treatment (two doses across 48 hours), 1 week treatment (three doses across five days) or long-term studies (one dose three times a week for approximately 1.5 weeks). Full-thickness dorsal skin was collected for histological analysis, cryosectioning, RNA isolation, and/or for epidermal stem cell isolation according to well-established FACS protocol.
Hair cycles were assessed macroscopically by observational and photographic documentation. A scale was established to grade hair cycle stage: 1) telogen (pink, white skin when dorsally shaved); 2) pigmentation (broad blue/grey pigment spots/patches on shaved dorsal area); 3) hair growth (dark pigmentation coupled with small patches of fur); 4) anagen (dark, full patches of fur within dorsal area) in relation to number of doses and elapsed time of treatment. H&E images of all treatment conditions were imaged at 20× magnification to assess morphological changes in control and treated skin. Hair cycle stages were also evaluated by follicular morphology into respective telogen, telogen-to-anagen transition, or anagen categories.
A set of full-thickness skin samples were obtained from post-mortem tissue harvesting, fixed overnight in 4% paraformaldehyde, and then dehydrated for paraffin embedding and slide generation; hematoxylin and eosin staining according to standard protocol. For immunohistochemistry, formalin-fixed, paraffin-embedded tissue slides were cleared and rehydrated through a series of ethanol washes. Antigen retrieval (20 min in pressure cooker, microwaved at 100 power) was performed with 10 mM citrate. Slides were incubated in hydrogen peroxide (30 min at 4 C) and then blocked with 10% goat serum/0.1% tween for 1 hour at room temperature. Primary antibodies were added and incubated overnight. The following antibodies were used—rabbit pCreb (Cell Signaling 9198, 1:800); rabbit Sox9 (Abcam 185966, 1:800); rabbit Ki67 sp6 (Abcam 16667, 1:50); rabbit PCNA (Cell Signaling 13110, 1:700); rabbit cFos (Abcam 7963, 1:100). Sections were washed the following day with 0.1% PBST and incubated with rabbit secondary HRP-labeled polymer (Dako) for 1 hour at room temperature, and then quickly washed with 0.1% PBST and PBS. AEC chromogen (Vector) was used for the colometric development reaction. Slides were then briefly counterstained with hemotoxylin, mounted with Faramount Aqueous Mounting Media (Dako) and sealed for subsequent visualization by light microscopy.
Bright-field immunohistochemistry and hematoxylin/eosin-stained images were captured using an Olympus BX51 light microscope at 20× magnification or 40× using oil immersion.

Creb (pCreb) = experiment: Immunohistochemistry of treated skin for Creb signaling, HFSC and proliferation markers
Experimental: as §1
as §2, with “protocol. […]” for “protocol.”

[1] = system: lactate dehydrogenase (Ldh); experiment: Ldh activity assay (in situ and plate reader) on treated skin/epidermis; conditions: epidermis isolated from treated male or female animals (FIG. 4A)
Experimental: as §1, §2

Ldha protein, pCreb = experiment: Western blot of epidermis from treated animals for pCreb and Ldha protein; conditions: epidermis from treated animals (FIG. 4C)
Experimental: Wildtype male and female 49-day old C57BL/6 mice were obtained from Jackson Laboratories for all topical experiments. All animals were maintained in UCLA's Division of Laboratory Medicine (DLAM)-approved pathogen-free barrier facilities and procedures were performed using protocols that adhere to the standards of the UCLA Animal Research Committee (ARC), Office of Animal Research Oversight (OARO), and the National Institutes of Health (NIH). […] All drugs were suspended in DMSO and aliquoted at approximately 5 times IC50 or EC50 for the purposes of penetrating the epidermal barrier upon in vivo application. […] Three experiment timepoints were used: acute treatment (two doses across 48 hours), 1 week treatment (three doses across five days) or long-term studies (one dose three times a week for approximately 1.5 weeks). Full-thickness dorsal skin was collected for histological analysis, cryosectioning, RNA isolation, and/or for epidermal stem cell isolation according to well-established FACS protocol.

| Structure (SMILES) | effect on hair cycle progression / reentry into anagen (hair cycle) | activation of Creb (pCreb) by immunohistochemistry (Creb (pCreb); acute 48 hours topical treatment, HFSCs and IFE (FIG. 3B)) | canonical Creb target expression (cFos staining) (Creb (pCreb); acute treatment (FIG. 3B)) | relative Ldh activity in lysed epidermis [1] | effect on hair cycle progression / reentry into anagen (hair cycle; listed as H-89) | Creb activation (pCreb) (western blot) (Ldha protein, pCreb) |
| --- | --- | --- | --- | --- | --- | --- |
| COc1ccccc1NC(=O)CSc1nc2c(cc1C#N)=CC1OCCOC1C=2 (stereo not shown) [#44] | accelerated reentry into anagen; also recorded: strongly accelerate the hair cycle; also recorded: accelerated hair growth | activation of Creb (pCreb) in HFSCs (and IFE) | induced levels of transcript for canonical Creb targets | high Ldh activity | – | – |
| COc1ccc(NC(=O)CSc2nc3c(cc2C#N)=CC2OCCOC2C=3)c(OC)c1 (stereo not shown) [#61] | accelerated reentry into anagen; also recorded: strongly accelerate the hair cycle; also recorded: accelerated hair growth | – | – | – | – | – |
| CCOc1ccc(OCC)c(NC(=O)CSc2nc3c(cc2C#N)=CC2OCCOC2C=3)c1 (stereo not shown) [#62] | strongly accelerate the hair cycle | – | – | – | – | – |
| O=S(=O)(NCCNC/C=C/c1ccc(Br)cc1)c1cccc2cnccc12 [H89, reference compound] | slowed hair cycle progression; also recorded: delays reentry into anagen; also recorded: slowed the hair cycle dramatically | – | – | did not demonstrate altered Ldh activity | delayed reentry into anagen | inhibition of Creb |
